The results in this text go back to patent publication US7799775B2, “Pyrimidine derivatives” (ASKA Pharmaceutical Co., Ltd., priority 2004, dated 2010).

Test [1] addresses T1, 5-HT1A receptor (Rattus norvegicus, UniProt P19327).
T1 construct: from tissue; host or cells: whole animal (SD male rats), behavioural read-out
T1 sequence (P19327 1-422): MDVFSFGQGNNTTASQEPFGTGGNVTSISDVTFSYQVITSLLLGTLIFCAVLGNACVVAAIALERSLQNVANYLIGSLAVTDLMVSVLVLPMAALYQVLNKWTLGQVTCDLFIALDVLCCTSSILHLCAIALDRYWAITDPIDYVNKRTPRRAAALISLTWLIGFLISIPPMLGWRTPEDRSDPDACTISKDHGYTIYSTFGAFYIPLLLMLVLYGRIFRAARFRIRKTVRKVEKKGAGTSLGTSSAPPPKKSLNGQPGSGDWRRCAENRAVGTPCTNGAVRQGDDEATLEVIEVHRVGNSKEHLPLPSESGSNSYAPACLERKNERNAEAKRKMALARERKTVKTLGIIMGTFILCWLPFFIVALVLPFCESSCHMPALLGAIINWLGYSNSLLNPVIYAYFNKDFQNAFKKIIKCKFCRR
The experiment in a line: Measurement of 5-HT1A receptor agonistic action on rats (in vivo): lower lip retraction and flat body posture. The following applies: SD male rats, 10 mg/kg intraperitoneal; maximum of group evaluation points, 4 grades 0-3, observed 5-30 min after administration. As for the experimental part:
(3) Measurement of 5-HT1A Receptor Agonistic Action on Rats (in Vivo):
Seven weeks old SD male rats were divided into 4-5 rats per group which were accustomized to the experimental environments twice. A week after the second accustomization, the rats were put into a transparent plastic case, and 10 mg/kg of a test compound (as dissolved in 1N-hydrochloric acid and diluted with suitable amount of saline) was intraperitoneally administered thereto. Immediately before the administration and 5, 10, 20 and 30 minutes after the administration, behaviors of the rats were observed as to lower lip retraction (LLP) and flat body posture (FBP). The results were evaluated in 4 grades (0: no reaction, 1: feeble reaction, 2: medium reaction, 3: maximum reaction).

Test [2] deals with T2, 5-HT3 receptor (Rattus norvegicus, UniProt P35563).
T2 construct: from tissue; host or cells: whole animal (SD male rats), serotonin-induced bradycardia
T2 sequence (P35563 24-483): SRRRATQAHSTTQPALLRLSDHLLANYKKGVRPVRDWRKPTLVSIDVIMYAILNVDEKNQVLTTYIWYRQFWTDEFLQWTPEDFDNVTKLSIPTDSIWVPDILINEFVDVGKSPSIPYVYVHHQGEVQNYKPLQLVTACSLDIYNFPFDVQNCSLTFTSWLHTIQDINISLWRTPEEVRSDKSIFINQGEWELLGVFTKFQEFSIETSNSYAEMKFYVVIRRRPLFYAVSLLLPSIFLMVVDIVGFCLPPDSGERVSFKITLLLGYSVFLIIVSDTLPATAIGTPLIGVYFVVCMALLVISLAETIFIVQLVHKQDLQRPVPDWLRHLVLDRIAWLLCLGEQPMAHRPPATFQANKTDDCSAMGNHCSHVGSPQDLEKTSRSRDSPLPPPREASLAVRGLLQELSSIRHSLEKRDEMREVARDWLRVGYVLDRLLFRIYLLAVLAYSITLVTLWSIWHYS
The experiment in a line: Measurement of 5-HT3 receptor antagonistic action on rats (in vivo): inhibition of serotonin-induced bradycardia (BJ reflex). The following applies: anesthetized SD male rats, dose 0.01 mg/kg intravenous, serotonin 300 μg/kg 10 minutes later. In short, it runs like this: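 Urethane-anaesthetised (1.25 g/kg i.p.) male SD rats, 270-410 g; serotonin 300 μg/kg i.v. given before and 10 min after i.v. test compound. Transient bradycardia measured from carotid heart-rate recording; value is percent inhibition of second versus first bradycardic response.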

In the case of `Cc1cc(N2CCN(CCCCc3nc4c(c(=O)n3C)CCCC4)CC2)nc2ccccc12` [Example 7-6, 3-methyl-2-[4-[4-(4-methylquinolin-2-yl)piperazin-1-yl]butyl]-5,6,7,8-tetrahydro-3H-quinazolin-4-one], in test [1], the “5-HT1A Receptor Agonistic Action on Rats, FBP” value turned out to be 2.0 and the “5-HT1A Receptor Agonistic Action on Rats, LLR” value is recorded as 2.4. Moreover, the “BC Inhibition (%)” value in test [2] turned out to be 58.5%.
